Where “and” joins values, the source holds several entries; their conditions need not be identical. Equal entries are not always repeated. Where two headings read alike, the source gives them in different places.
Experiments:
[1] = PP-LFER solute descriptor determination from GC retention and partition coefficient data; assay type: physicochemical; conditions: for Solute descriptor S (dipolarity/polarizability parameter): final adjusted value, shared within a PFAS group
Excerpt: The GC columns used were, from low to high polarity, HP-5ms Ultra Inert (poly[5% phenyl/95% methyl]siloxane equivalent; Agilent Technologies, Santa Clara, CA), DB-200 (poly[35% trifluoropropyl/65% methyl]siloxane; Agilent Technologies), DB-225ms (poly[50% cyanopropylphenyl/50% methyl]siloxane equivalent; Agilent Technologies), and SolGel-WAX (polyethylene glycol; Trajan, Ringwood, Australia). Column dimensions were all 30 m × 0.25 mm i.d. with a coating thickness of 0.25 μm.
The method for GC retention time measurements follows that of a previous study.[18] Briefly, a 7890A/5975C GC/MS instrument (Agilent Technologies) equipped with an MPS2 autosampler and CIS4 injector (Gerstel, Mülheim an der Ruhr, Germany) was used for all measurements. For each column, isothermal retention times were measured at four temperatures in the range of 30–120 °C to cover all target compounds. The temperature at the injector and transfer line was fixed at 120 °C. The carrier gas was He at a flow rate of 1.2 mL/min. Compounds were introduced into the GC by injecting either headspace (100–250 μL) above the pure compound or solution in acetone (1 μL). Split injections were performed with a split ratio of 20–250. Column dead time (t0) was determined by injecting air and measuring Ar (m/z 40). From the measured retention time (t), the retention factor (k) was calculated as k = (t–t0)/t0. Measurements with t < t0 + 0.1 min were considered too short and discarded. For each column and temperature, k values were obtained for 29–52 PFAS and 29–48 reference compounds.
The standard procedure for solute descriptor determination was as follows. First, the system parameters in eq 1 were calibrated for each column (or partition system) and temperature by MLR using log k (or log K) data and solute descriptors for reference compounds. Dimethylformamide, 1-pentylamine, dimethylsulfoxide, and dodecamethylcyclohexasiloxane (D6) were removed from the log k data sets, because they frequently appeared as outliers (>3 SD) of the PP-LFER model fit. Reference data sets for hexadecane/water partition coefficients (KHxd/w),[21]Kow,[22] and octanol/air partition coefficients (Koa)[23] were taken from the cited references and amended with data for organosilicon compounds.[24],[25] Similar to PFAS, organosilicon compounds have weak van der Waals interaction properties[9] and it may be beneficial to include them in reference data sets. The solute descriptors for PFAS were then back-calculated by using the calibrated PP-LFER equations. Of the five descriptors, V can be calculated from the molecular structure[26] (note: the fragment value for F from Goss et al.[11] was used), and L was available for the PFAS studied.[18] Thus, the left side of eq 2 was known, and MLR was performed to obtain S, A, and B on the right side. [drawing 2] 2 To determine the three descriptors, a minimum of three k and K data are required for a given PFAS compound. The data used here were: k measured for 60 PFAS in this study, KHxd/w for 21 PFAS,[5]Kow for 12 PFAS (see the Results and Discussion section), and Koa for 3 PFAS.[11]
Key to the accurate determination of the polar interaction descriptors is the availability of K data for partition systems with water as a partition phase because water is a strong H-bond donor and acceptor phase and thus the corresponding K values are sensitive to the H-bonding properties of the solute.[27] In particular, at least one solvent/water or air/water partition coefficient is required to determine B because there is no commonly used GC phase that is a significant H-bond donor. In the data set, KHxd/w is sensitive to both A and B and Kow is sensitive to B. However, KHxd/w and Kow data are not available for all PFAS. To increase the number of PFAS for which descriptors can be determined, the following assumptions were made. […]

[2] = Octanol/water partition coefficient (Kow), shared-headspace method; assay type: physicochemical; conditions: 25 °C; shared-headspace method (SH)
Experimental: Kow was measured for nine PFAS (Table 2) to supplement the data set for descriptor determination. The nine PFAS were selected based on measurement feasibility and structural diversity. The shared-headspace or batch partition method was used as described previously.[5] Details of the methods are given in SI-1.

[3] = 25 °C, updated in the iterative calculation
[4] = difference of descriptor values

Row | SMILES | Solute descriptor L (logarithmic hexadecane/air partition coefficient, KHxd/air) [1, 3] | Solute descriptor S (dipolarity/polarizability parameter) [1] | Measured Log Kow, Mean ± SD [2] | A value higher than perfluorinated counterpart, perfluorooctane [1, 4] | L value higher than perfluorinated counterpart, perfluorooctane [1, 4] | Solute descriptor L (logarithmic hexadecane/air partition coefficient, KHxd/air) [1]
1 | OCCCC(F)(F)C(F)(F)C(F)(F)F [3:3 FTOH, 4,4,5,5,6,6,6-Heptafluorohexan-1-ol] | 2.710 | 0.53 | 2.46 ± 0.00 | – | – | –
2 | FC(F)(F)C(F)(F)C(F)(F)C(F)(F)C(F)(F)C(F)(F)CI [6:1 FTI, 1H,1H-Perfluoroheptyl iodide] | 3.382 and 3.38 | 0.27 and 0.27 ± 0.02 | 5.57 ± 0.01 | – | – | –
3 | OCCCCC(F)(F)C(F)(F)C(F)(F)C(F)(F)F [4:4 FTOH, 5,5,6,6,7,7,8,8,8-Nonafluorooctan-1-ol] | 3.499 | 0.52 | 3.54 ± 0.00 | – | – | –
4 | OCC(F)(F)C(F)(F)C(F)(F)C(F)(F)C(F)(F)C(F)(F)C(F)(F)F [7:1 FTOH, 1H,1H-Perfluorooctan-1-ol] | 2.715 | 0.30 | 5.01 ± 0.02 | – | – | –
5 | FC(F)C(F)(F)C(F)(F)C(F)(F)C(F)(F)C(F)(F)C(F)(F)C(F)F [1,8-DHPFO, 1H,8H-Perfluorooctane] | 2.130 | 0.38 | – | 0.24 | 0.78 | –
6 | FC(F)(F)C(F)(F)C(F)(F)C(F)(F)CCI [4:2 FTI, 1H,1H,2H,2H-Perfluorohexyl iodide] | 3.325 | 0.32 | – | – | – | –
7 | FC(F)C(F)(F)C(F)(F)C(F)(F)C(F)(F)C(F)(F)CI [6:1 FTI-7H, 1H,1H,7H-Perfluoroheptyl iodide] | 3.887 and 3.89 | 0.63 and 0.63 ± 0.04 | 4.90 ± 0.01 | – | – | –
8 | C=CC(F)(F)C(F)(F)C(F)(F)C(F)(F)C(F)(F)C(F)(F)C(F)(F)C(F)(F)C(F)(F)C(F)(F)F [10:2 FTO, 1H,1H,2H-Perfluoro-1-dodecene] | – | 0.11 | – | – | – | 3.031
9 | C=CC(F)(F)C(F)(F)C(F)(F)C(F)(F)F [4:2 FTO, 1H,1H,2H-Perfluoro-1-hexene] | 1.451 | 0.11 | – | – | – | –
10 | FC(F)(F)C(F)(F)C(F)(F)C(F)(F)C(F)(F)C(F)(F)C(F)(F)C(F)(F)I [PFOI, Perfluorooctyl iodide] | 3.068 | 0.07 | – | – | – | –
11 | NS(=O)(=O)C(F)(F)C(F)(F)C(F)(F)C(F)(F)C(F)(F)C(F)(F)F [PFHxSA, Perfluorohexanesulfonamide] | 4.189 | 0.96 | – | – | – | –
12 | FC(F)(F)C(F)(F)C(F)(F)C(F)(F)C(F)(F)C(F)(F)CCI [6:2 FTI, 1H,1H,2H,2H-Perfluorooctyl iodide] | 3.892 | 0.32 | – | – | – | –
13 | C=C(C)C(=O)OCCC(F)(F)C(F)(F)C(F)(F)C(F)(F)C(F)(F)C(F)(F)F [6:2 FTMAC, 1H,1H,2H,2H-Perfluorooctyl methacrylate] | 4.553 | 0.53 | – | – | – | –
14 | O=S(=O)(F)C(F)(F)C(F)(F)C(F)(F)C(F)(F)F [PFBSF, Perfluorobutanesulfonyl fluoride] | 1.278 | 0.16 | – | – | – | –
15 | C=CC(=O)OCCC(F)(F)C(F)(F)C(F)(F)C(F)(F)C(F)(F)C(F)(F)F [6:2 FTAC, 1H,1H,2H,2H-Perfluorooctyl acrylate] | 4.098 | 0.54 | – | – | – | –
16 | FC(F)(F)C(F)(F)C(F)(F)N(C(F)(F)C(F)(F)C(F)(F)F)C(F)(F)C(F)(F)C(F)(F)F [PFTPrA, Perfluorotripropyl amine] | 1.521 | -0.26 | – | – | – | –
17 | FC(F)(F)C(F)(F)C(F)(F)C(F)(F)C(F)(F)C(F)(F)C(F)(F)C(F)(F)C(F)(F)F [PFN, Perfluorononane] | 1.571 | -0.19 | – | – | – | –
18 | FC(F)(F)C(F)(F)C(F)(F)C(F)(F)C(F)(F)C(F)(F)C(F)(F)C(F)(F)C(F)(F)C(F)(F)C(F)(F)C(F)(F)F [PFDoD, Perfluorododecane] | – | -0.19 | – | – | – | 2.362
19 | C=CC(=O)OCCC(F)(F)C(F)(F)C(F)(F)C(F)(F)C(F)(F)C(F)(F)C(F)(F)C(F)(F)F [8:2 FTAC, 1H,1H,2H,2H-Perfluorodecyl acrylate] | 4.661 | 0.54 | – | – | – | –
20 | OCC(F)(F)C(F)(F)C(F)(F)F [3:1 FTOH, 1H,1H-Perfluorobutan-1-ol] | 1.542 | 0.30 | – | – | – | –
21 | FC(F)(F)C(F)(F)C(F)(F)C(F)(F)C(F)(F)C(F)(F)I [PFHxI, Perfluorohexyl iodide] | 2.508 | 0.07 | – | – | – | –
22 | OCc1ccc(CCC(F)(F)C(F)(F)C(F)(F)C(F)(F)C(F)(F)C(F)(F)F)cc1 [6:2 FTBnOH, 4-(1H,1H,2H,2H-Perfluorooctyl)benzyl alcohol] | 6.656 | 0.75 | – | – | – | –
23 | CC(O)C(F)(F)C(F)(F)C(F)(F)C(F)(F)C(F)(F)F (centres unmarked) [5:2s FTOH, 1H,1H,1H,2H-Perfluoroheptan-2-ol] | 2.296 | 0.39 and 0.39 ± 0.02 | 3.80 ± 0.03 | – | – | –
24 | CC(=O)OCCC(F)(F)C(F)(F)C(F)(F)C(F)(F)C(F)(F)C(F)(F)C(F)(F)C(F)(F)F [8:2 FTAce, 1H,1H,2H,2H-Perfluorodecyl acetate] | – | 0.54 | – | – | – | 4.234
25 | FC(F)(F)C(F)(F)C(F)(F)C(F)(F)C(F)(F)C(F)(F)C(F)(F)C(F)(F)C(F)(F)C(F)(F)I [PFDI, Perfluorodecyl iodide] | – | 0.07 | – | – | – | 3.623
26 | C=CC(=O)OCCC(F)(F)C(F)(F)C(F)(F)C(F)(F)C(F)(F)C(F)(F)C(F)(F)C(F)(F)C(F)(F)C(F)(F)F [10:2 FTAC, 1H,1H,2H,2H-Perfluorododecyl acrylate] | – | 0.54 | – | – | – | 5.221
27 | FC(OC(F)(F)C(F)(OC(F)(F)C(F)(OC(F)(F)C(F)(OC(F)(F)C(F)(OC(F)(F)C(F)(F)C(F)(F)F)C(F)(F)F)C(F)(F)F)C(F)(F)F)C(F)(F)F)C(F)(F)F (centres unmarked) [FE-E5, 1,1,1,2,4,4,5,7,7,8,10,10,11,13,13,14,16,16,17 ,17,18,18,18-Tricosafluoro-5,8,11,14-tetrakis(trifluoromethyl)-3,6,9,12,15-pentaoxaoctadecane] | – | -0.81 | – | – | – | 3.128
